Reference: the supplement of paper PMC13380429

Experiments:
Settings in all cases: 72 h
Caco-2 [1] = test: cell viability relative to DMSO; higher = less toxic
Calu-3 [2] = test: as above
HepG2 [3] = test: as above
U2OS [4] = test: as above
Vero E6 [5] = test: as above
Caco-2 [6] = test: relative viability EC50 (midpoint between 100% and the lowest measured viability); higher = less toxic
Calu-3 [7] = test: as above
HepG2 [8] = test: as above
U2OS [9] = test: as above
Vero E6 [10] = test: as above
Caco-2 [11] = test: drug sensitivity score (DSS) for viability; higher = more toxic; extreme values may be limits of the assay
Calu-3 [12] = test: as above
HepG2 [13] = test: as above
U2OS [14] = test: as above
Vero E6 [15] = test: as above

SMILES	cell viability (Caco-2 [1]; 1 nM) [%]	cell viability (Caco-2 [1]; 10 nM) [%]	cell viability (Caco-2 [1]; 100 nM) [%]	cell viability (Caco-2 [1]; 1000 nM) [%]	cell viability (Caco-2 [1]; 10000 nM) [%]	cell viability (Calu-3 [2]; 1 nM) [%]	cell viability (Calu-3 [2]; 10 nM) [%]	cell viability (Calu-3 [2]; 100 nM) [%]	cell viability (Calu-3 [2]; 1000 nM) [%]	cell viability (Calu-3 [2]; 10000 nM) [%]	cell viability (HepG2 [3]; 1 nM) [%]	cell viability (HepG2 [3]; 10 nM) [%]	cell viability (HepG2 [3]; 100 nM) [%]	cell viability (HepG2 [3]; 1000 nM) [%]	cell viability (HepG2 [3]; 10000 nM) [%]	cell viability (U2OS [4]; 1 nM) [%]	cell viability (U2OS [4]; 10 nM) [%]	cell viability (U2OS [4]; 100 nM) [%]	cell viability (U2OS [4]; 1000 nM) [%]	cell viability (U2OS [4]; 10000 nM) [%]	cell viability (Vero E6 [5]; 1 nM) [%]	cell viability (Vero E6 [5]; 10 nM) [%]	cell viability (Vero E6 [5]; 100 nM) [%]	cell viability (Vero E6 [5]; 1000 nM) [%]	cell viability (Vero E6 [5]; 10000 nM) [%]	relative viability EC50 (Caco-2 [6]) [µM]	relative viability EC50 (Calu-3 [7]) [µM]	relative viability EC50 (HepG2 [8]) [µM]	relative viability EC50 (U2OS [9]) [µM]	relative viability EC50 (Vero E6 [10]) [µM]	drug sensitivity score (Caco-2 [11])	drug sensitivity score (Calu-3 [12])	drug sensitivity score (HepG2 [13])	drug sensitivity score (U2OS [14])	drug sensitivity score (Vero E6 [15])
c1ccc(CCCN2CCN(CCOC(c3ccccc3)c3ccccc3)CC2)cc1	104	95	94.4	92.9	85.6	102	98.4	103	95.9	99.7	92.4	91.6	99.2	99.7	85.1	101	97	100	98.1	97.8	114	104	106	96.5	95.9	> 10	> 10	> 10	> 10	> 10	0.3	0	0.2	0	0
CCCCCCOc1nsnc1C1=CCCN(C)C1 [xanomeline]	109	93.8	99.1	92.3	99.1	101	115	100	104	96.6	102	102	100	99.3	79.3	95.3	102	97.5	98.9	92.3	105	104	106	101	95.9	> 10	> 10	> 10	> 10	> 10	0	0	0.7	0	0
CCCCc1cc2ccccc2c(OCCN(C)C)n1 [dimethisoquin]	107	102	91.5	105	97.6	104	97.7	92.3	95.6	98.3	103	104	109	91.2	102	98.9	106	102	105	91.3	106	97.5	97.3	96.1	94.3	> 10	> 10	> 10	> 10	> 10	0	0	0	0	0
O=C(O)CCc1nc(-c2ccccc2)c(-c2ccccc2)o1 [oxaprozin]	94.7	97.1	100	108	101	98.3	92.1	102	96.8	102	104	99.1	107	109	92.1	102	95.4	101	94.2	96.8	99	97.5	94.8	104	97.2	> 10	> 10	> 10	> 10	> 10	0	0	0	0	0
CCCN(CC1CC1)c1nc(C)nc(Nc2c(Cl)cc(Cl)cc2Cl)c1Cl	93.5	97.8	90	96.2	89.8	85.1	95.1	93.8	96.8	95.5	95.4	94	106	103	97.2	100	97.3	103	101	99.3	98.3	96.7	94.9	96.8	106	> 10	> 10	> 10	> 10	> 10	0	0	0	0	0
Oc1ccc2ccccc2c1 [beta-naphthol]	102	90.3	99.1	89.8	83.2	114	98.4	104	114	116	94	90.7	102	89.1	99.4	102	99.6	104	97.2	104	94.4	99.5	98.7	104	90.7	> 10	> 10	> 10	> 10	> 10	0.6	0	0	0	0
CCOc1ccccc1OCC1CNCCO1 (stereo not given) [viloxazine]	111	99.5	113	118	95.6	86.6	98.2	98.6	100	111	116	91.7	111	94.7	96.6	94.8	98.5	102	104	105	96.4	89.4	94.1	92.2	102	> 10	> 10	> 10	> 10	> 10	0	0	0	0	0
